What all share (test): NCI tumour cell line growth inhibition, 48 h
Assay [1] relates to A549.
Assay [2] deals with ACHN.
The test system of assay [3] is BT-549.
Assay [4] has as its system CAKI-1.
In assay [5] the test system is COLO 205.
Assay [6] has as its system DU-145.
Assay [7] has as its system EKVX.
Assay [8] deals with HOP-62.
In assay [9] the test system is HOP-92.
Assay [10] deals with Hs-578T.
Assay [11] relates to K562.
Assay [12] has as its system MDA-MB-231.
Assay [13] concerns MDA-MB-435.
The subject of assay [14] is PC-3.
Assay [15] concerns RPMI-8226.
The subject of assay [16] is SK-MEL-28.
Assay [17] concerns SNB-75.
Assay [18] concerns SR.
In assay [19] the test system is T47D.
For assay [20], the system named is UO-31.

From ChEMBL document CHEMBL1201862, “PubChem BioAssay data set” (2004) come the findings set out here.

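Five concentrations, 48 hours, 96-well plates. At the GI50, growth is halved.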 Active and inactive are the calls of the source. No stated cut-off is given here; in the data, active = GI50 up to about 1.1 µM and inactive = higher.

Consider `N=C1C=CC(=C(c2ccc(N)cc2)c2ccc(N)cc2)C=C1`, for which the GI50 in assay [1] was 3.73 µM (inactive); in assay [2], 8.17 µM (inactive); in [3], 0.982 µM (active); in assay [4], 19.1 µM (inactive); in assay [5], 1.64 µM (inactive); in [6] it was 5.71 µM (inactive). The GI50 in assay [7] was 5.58 µM (inactive); in [8], 3.3 µM (inactive); in [9], 3.22 µM (inactive); in assay [10] it was 0.51 µM (active); in assay [11], 2.39 µM (inactive); in assay [12] it was 4.66 µM (inactive). In addition, the GI50 is 4.18 µM (inactive) in assay [13]; 3.12 µM (inactive) in assay [14]; 2.29 µM (inactive) in assay [15]; 8.13 µM (inactive) in assay [16]; 0.519 µM (active) in [17]; 11.1 µM (inactive) in assay [18]. Also, the GI50 in assay [19] was 0.968 µM (active); in [20], 12.5 µM (inactive).
`COc1cc(/C=C2\C[C@H]3[C@@H]4CC=C5C=C(N6CCCC6)CC[C@]5(C)[C@H]4CC[C@]3(C)C2=O)cc(OC)c1OC`: the GI50 was 5.24 µM (inactive) in [1]; 2.32 µM (inactive) in [2]; 2.12 µM (inactive) in assay [3]; 2.84 µM (inactive) in assay [4]; 2.77 µM (inactive) in assay [5]; 3.44 µM (inactive) in [6]. For the same compound, the GI50 in assay [7] was 3.75 µM (inactive); in assay [8], 2.48 µM (inactive); in assay [9] it was 2.21 µM (inactive); in assay [10], 2.4 µM (inactive); in assay [11], 3.42 µM (inactive); in [12] it was 2.4 µM (inactive). Further, the GI50 in assay [13] is 1.63 µM (inactive); in assay [14], 3.12 µM (inactive); in [15], 2.53 µM (inactive); in assay [16], 4.55 µM (inactive); in assay [17], 4.51 µM (inactive); in assay [18], 1.44 µM (inactive). Besides, the GI50 is 1.94 µM (inactive) in [19] and 4.83 µM (inactive) in assay [20].
On to `COc1cccc2c1C(=O)c1c(O)c3c(c(O)c1C2=O)C[C@@](O)(C(C)=O)C[C@@H]3OC1CC(O)C(O)C(C)O1` (stereo not given in full), for which the GI50 is 0.465 µM (active) in assay [1]; 0.543 µM (active) in assay [2]; 3.33 µM (inactive) in [3]; 0.789 µM (active) in assay [4]; 2.05 µM (inactive) in [5]; 1.62 µM (inactive) in [6]. Besides, the GI50 is 6.67 µM (inactive) in [7]; 0.307 µM (active) in [8]; 2.1 µM (inactive) in assay [9]; 0.998 µM (active) in [10]; 0.925 µM (active) in assay [11]; 8.65 µM (inactive) in [12]. The GI50 in assay [13] is 8.95 µM (inactive); in assay [14], 4.95 µM (inactive); in assay [15], 0.485 µM (active); in assay [16], 6.08 µM (inactive); in [17], 1.62 µM (inactive); in assay [18], 0.00935 µM (active). In addition, the GI50 was 2.82 µM (inactive) in assay [19] and 1.66 µM (inactive) in assay [20].
As for `O=C1Nc2ccccc2/C1=N/Nc1ccc([N+](=O)[O-])cc1[N+](=O)[O-]`, the GI50 was 12.5 µM (inactive) in assay [1]; 7.08 µM (inactive) in assay [2]; 12.1 µM (inactive) in [3]; 20.4 µM (inactive) in assay [4]; 14.5 µM (inactive) in assay [5]; 7.82 µM (inactive) in assay [6]. Further, the GI50 in [7] was 1.5 µM (inactive); in assay [8], 9.04 µM (inactive); in assay [9] it was 3.58 µM (inactive); in assay [10], 6.37 µM (inactive); in assay [11], 32.4 µM (inactive); in assay [12] it was 13.2 µM (inactive). Further, the GI50 was 98.4 µM (inactive) in assay [13]; 12.9 µM (inactive) in assay [14]; 26.1 µM (inactive) in assay [15]; 63 µM (inactive) in assay [16]; 18.7 µM (inactive) in assay [17]; 25.6 µM (inactive) in [18]. Besides, the GI50 in assay [19] was 15.7 µM (inactive); in [20], 13.2 µM (inactive).
Regarding `COC(=O)C1C(O)CCC2CN3CCc4c([nH]c5cccc(OC)c45)C3CC21` (stereo not given), the GI50 in [1], in assay [2], in [3], in [4], in [5] and in assay [6] was > 100 µM (inactive) throughout. Besides, the GI50 in [7], in assay [8], in [9], in [10], in assay [11] and in assay [12] was > 100 µM (inactive) in each case. The GI50 in [13], in assay [14], in assay [15], in [16], in assay [17] and in [18] was > 100 µM (inactive) in each case. Moreover, the GI50 is > 100 µM (inactive) in assay [19] and 76 µM (inactive) in assay [20].
With `Cc1oc2c(c1C)S(=O)(=O)C(C#N)=CN2`, the GI50 in assay [1], in [2], in [3], in [4], in assay [5] and in [6] was > 100 µM (inactive) in each case. The GI50 in [7], in assay [8], in [9], in assay [10], in [11] and in assay [12] was > 100 µM (inactive) each time. Further, the GI50 in assay [13] was > 100 µM (inactive); in assay [14], > 100 µM (inactive); in assay [15], > 100 µM (inactive); in [16], > 100 µM (inactive); in [17], 65.3 µM (inactive); in assay [18], > 100 µM (inactive). Further, the GI50 in assay [19] and in assay [20] was > 100 µM (inactive) throughout.
Consider `COc1cccc(Nc2nc(N)nc(N)c2N)c1`, for which the GI50 is > 100 µM (inactive) in assay [1]; 42.6 µM (inactive) in [2]; 35.7 µM (inactive) in [3]; 11.8 µM (inactive) in [4]; 34.4 µM (inactive) in assay [5]; > 100 µM (inactive) in assay [6]. The GI50 in [7] was > 100 µM (inactive); in assay [8], 29.3 µM (inactive); in assay [9], > 100 µM (inactive); in assay [10], > 100 µM (inactive); in assay [11] it was 37.2 µM (inactive); in assay [12] it was 22.1 µM (inactive). Further, the GI50 is 39.7 µM (inactive) in assay [13]; 99.8 µM (inactive) in assay [14]; 24.9 µM (inactive) in assay [15]; > 100 µM (inactive) in assay [16]; > 100 µM (inactive) in [17]; 24 µM (inactive) in [18]. The GI50 in assay [19] is 35.6 µM (inactive); in assay [20] it was > 100 µM (inactive).
Regarding `Cc1cc(O)c2c(c1)C[C@@H](O)C1=C2C(=O)c2c(O)ccc(OC3CC(O)C(OC4CC(OC5CCC(OC6CC(O)C(OC7CC(OC8CCC(O)C(C)O8)C(O)C(C)O7)C(C)O6)C(C)O5)C(O)C(C)O4)C(C)O3)c2C1=O` (stereo not given in full), the GI50 is 0.302 µM (active) in assay [1]; 0.0845 µM (active) in assay [2]; 0.327 µM (active) in [3]; 0.138 µM (active) in [4]; 0.0488 µM (active) in assay [5]; 0.345 µM (active) in assay [6]. The GI50 in assay [7] was 0.112 µM (active); in assay [8] it was 0.232 µM (active); in [9] it was 0.178 µM (active); in assay [10], 0.0311 µM (active); in assay [11], 0.0653 µM (active); in assay [12] it was 0.171 µM (active). In addition, the GI50 in [13] is 0.135 µM (active); in [14], 0.223 µM (active); in assay [15], 0.0265 µM (active); in assay [16], 0.07 µM (active); in assay [17] it was 0.0573 µM (active); in assay [18], 0.0715 µM (active). The GI50 in assay [19] was 0.167 µM (active); in assay [20], 0.156 µM (active).
